Laboratory results reported in US8895282B2, “Use of a substance for manufacturing of a medicament for treatment of common cold” (Tanomed AB, priority 2008, dated 2014).
“And” between values parts separate entries of the source, which are not always exact repeats. Identical values can stand only once. Like-named read-outs stand apart in the source and are kept apart here.

Experiments:
[1] = tested on: Rhinovirus 7; settings: b7: RV7 preincubated 30 min with 0.01% hydrogen peroxide, then catalase
Experimental: (§1) Virus concentration=dil 2. Incubation during 30 min in heater keeping 37° C. After 30 min the effect of the hydrogen peroxide is aborted with the addition of 0.1 ml catalase solution into the vial (=1 kU/ml). • 0.7 ml 5% glucose solution+0.1 ml dil 1 of RV7 (=a7) or RV8 (=a8)+0.1 ml of the hydrogen peroxide solution (=final concentration in the vial=[…]). Incubation and abortion of the hydrogen peroxide effect similar as in a).
(§2) Altogether 4 vials (Eppendorff): a7, a8, b7 and b8.
(§3) After the addition of catalase, samples are transferred to a 96-well plate with flat bottom according to table 3.

[2] = tested on: Rhinovirus 8; settings: 50 μl b8: RV8 preincubated 30 min with 0.01% hydrogen peroxide, then catalase
Experimental: as §1, §2, §3

[3] = tested on: WI 38 cells
Experimental: as §1, §3

[4] = tested on: Rhinovirus 7
Experimental: Virus: Rhinovirus 7, purchased from ATCC (VR-1117), was used as a representative for the rhinovirus group. In the assays the dilutions 10^−2 and 10^−3 were used. […] 0.3 ml of each dilution was added into the vials.
(§4) Cell culture: Human lung cell fibroblasts (WI 38, ATCC-CCL-75) was used for cytopathic effect detection. 10-fold serial dilutions had been made from the concentrated viral suspension. […] Then the media was changed to RPMI with 2% of fetal calf serum, which was preserved during the assay. The cells were incubated in CO2enriched air at 37° C. During the experiments a cell culture of 17th-18^thpassage was used.
Catalase: From Sigma-Aldrich™. A solution of 100 000 U/ml was prepared from the original solution of 10^6 U/ml.
H2O2: a 20% solution was diluted in Phosphate buffered saline (PBS) to a 0.5% and a 0.05% solution. 0.1 ml was added to the vials, which means 0.05% or 0.005% in the vials.
A solution of 200 U/ml and 600 U/ml was prepared from the original solution of 6000 U/ml.
In order to evaluate whether the effect of the hydrogen peroxide was a direct effect on the virus itself or a cytoprotective effect, we preincubated the virus with the hydrogen peroxide, before it was transferred to the wells with the cells. The WI 38 cells are also sensitive to hydrogen peroxide, and therefore it was necessary to add catalase before inoculation into the wells. […] This design would also reveal if the inhibitory effect was only a virostatic one, or if it could damage the virions irreversibly.
(§5) In table 1 the content of each of the 10 vials (Eppendorf) is listed. The vials were incubated in a heater keeping a stable temperature of 37° C. 1000 U of catalase was added after 15, 30 and 60 min of incubation. 2×50 μl from each vial was transferred to duplicate cell wells (a 96-well plate).

[5] = tested on: WI 38 cells; remark: listed apart in the source
Experimental: as §4, §5

[6] = 0.005% H2O2, RV 7 dil 10^−2, preincubation 15 min
[7] = 0.005% H2O2, RV 7 dil 10^−2, preincubation 30 min
[8] = 0.005% H2O2, RV 7 dil 10^−2, preincubation 60 min
[9] = 0.005% H2O2, RV 7 dil 10^−3, preincubation 15 min
[10] = 0.005% H2O2, RV 7 dil 10^−3, preincubation 30 min
[11] = 0.005% H2O2, RV 7 dil 10^−3, preincubation 60 min
[12] = 0.05% H2O2, RV 7 dil 10^−2, preincubation 15 min
[13] = 0.05% H2O2, RV 7 dil 10^−2, preincubation 30 min
[14] = 0.05% H2O2, RV 7 dil 10^−2, preincubation 60 min
[15] = 0.05% H2O2, RV 7 dil 10^−3, preincubation 15 min
[16] = 0.05% H2O2, RV 7 dil 10^−3, preincubation 30 min
[17] = 0.05% H2O2, RV 7 dil 10^−3, preincubation 60 min

## OO [H2O2, hydrogen peroxide]
[1]
  Infection of WI 38 cells after 2 days of inoculation: 1+
  Infection of WI 38 cells after 10 days of inoculation: 1+ and 2+
[2]
  Infection of WI 38 cells after 2 days of inoculation: 1+
  Infection of WI 38 cells after 10 days of inoculation: 3+
[3]
  Effect on WI 38 cells after 2 days: Tox
  Effect on WI 38 cells after 10 days: tox
[4]; 0.005% (2 mM) hydrogen peroxide, higher concentration of RV 7
  Inactivation of RV 7: not able to inactivate
[4]; [6]
  Day 3 (cytopathic effect of RV 7 on WI 38 cells): +
  Day 5 (cytopathic effect of RV 7 on WI 38 cells): ++
  Day 7 (cytopathic effect of RV 7 on WI 38 cells): ++
[4]; [7]
  Day 3 (cytopathic effect of RV 7 on WI 38 cells): +
  Day 5 (cytopathic effect of RV 7 on WI 38 cells): +
  Day 7 (cytopathic effect of RV 7 on WI 38 cells): ++
[4]; [8]
  Day 3 (cytopathic effect of RV 7 on WI 38 cells): +
  Day 5 (cytopathic effect of RV 7 on WI 38 cells): +
  Day 7 (cytopathic effect of RV 7 on WI 38 cells): +
[4]; [9]
  Day 3 (cytopathic effect of RV 7 on WI 38 cells): −
  Day 5 (cytopathic effect of RV 7 on WI 38 cells): +
  Day 7 (cytopathic effect of RV 7 on WI 38 cells): +
[4]; [10]
  Day 3 (cytopathic effect of RV 7 on WI 38 cells): −
  Day 5 (cytopathic effect of RV 7 on WI 38 cells): −
  Day 7 (cytopathic effect of RV 7 on WI 38 cells): −
[4]; [11]
  Day 3 (cytopathic effect of RV 7 on WI 38 cells): −
  Day 5 (cytopathic effect of RV 7 on WI 38 cells): −
  Day 7 (cytopathic effect of RV 7 on WI 38 cells): −
[4]; 0.005% hydrogen peroxide, 60 min of incubation, RV 7 10^−3 dilution
  Inactivation of RV 7: able to inactivate
[4]; 0.05% (20 mM) H2O2, all RV 7 concentrations, already after 15 min of incubation
  Inactivation of RV 7: able to inactivate
[4]; [12]
  Day 3 (cytopathic effect of RV 7 on WI 38 cells): −
  Day 5 (cytopathic effect of RV 7 on WI 38 cells): −
  Day 7 (cytopathic effect of RV 7 on WI 38 cells): −
[4]; [13]
  Day 3 (cytopathic effect of RV 7 on WI 38 cells): −
  Day 5 (cytopathic effect of RV 7 on WI 38 cells): −
  Day 7 (cytopathic effect of RV 7 on WI 38 cells): −
[4]; [14]
  Day 3 (cytopathic effect of RV 7 on WI 38 cells): −
  Day 5 (cytopathic effect of RV 7 on WI 38 cells): −
  Day 7 (cytopathic effect of RV 7 on WI 38 cells): −
[4]; [15]
  Day 3 (cytopathic effect of RV 7 on WI 38 cells): −
  Day 5 (cytopathic effect of RV 7 on WI 38 cells): −
  Day 7 (cytopathic effect of RV 7 on WI 38 cells): −
[4]; [16]
  Day 3 (cytopathic effect of RV 7 on WI 38 cells): −
  Day 5 (cytopathic effect of RV 7 on WI 38 cells): −
  Day 7 (cytopathic effect of RV 7 on WI 38 cells): −
[4]; [17]
  Day 3 (cytopathic effect of RV 7 on WI 38 cells): −
  Day 5 (cytopathic effect of RV 7 on WI 38 cells): −
  Day 7 (cytopathic effect of RV 7 on WI 38 cells): −
[4]; Glucose Oxidase or 0.05% hydrogen peroxide solution, 7 days of incubation, no sign of recovery
  Reversibility of the inactivation of RV 7: irreversible
[5]
  Day 3 (toxic effect on WI 38 cells, control): TOX
  Day 5 (toxic effect on WI 38 cells, control): TOX
  Day 7 (toxic effect on WI 38 cells, control): TOX
  Toxic effect on WI 38 cells: severe toxic effect
